Measured values: the NIST ThermoML archive (doi:10.1016/j.tca.2010.05.014)
Numbers after ± are expanded uncertainties.

Assay: cn = amount concentration of the nth substance listed, in mol/dm3
Settings: 101 kPa, Liquid; for viscosity: Capillary tube (Ostwald / Ubbelohde) method; for mass density: Vibrating tube method

O=C(O)CC(O)(CC(=O)O)C(=O)O [citric acid] + O
Settings	mass density, c1 = 0.03 [kg/m3]	mass density, c1 = 0.05 [kg/m3]	mass density, c1 = 0.07 [kg/m3]	mass density, c1 = 0.1 [kg/m3]	viscosity, c1 = 0.03 [mPa·s]	viscosity, c1 = 0.05 [mPa·s]	viscosity, c1 = 0.07 [mPa·s]	viscosity, c1 = 0.1 [mPa·s]
298.15 K	999.5 ± 0.1	1000.9 ± 0.1	1002.6 ± 0.1	1004.8 ± 0.1	0.8766 ± 0.0064	0.8921 ± 0.0065	0.9048 ± 0.0065	0.9254 ± 0.0066
308.15 K	996.3 ± 0.1	997.7 ± 0.1	999.3 ± 0.1	1001.8 ± 0.1	0.7136 ± 0.0058	0.7253 ± 0.0059	0.7595 ± 0.006	0.7855 ± 0.0061
318.15 K	992.5 ± 0.1	993.8 ± 0.1	995.4 ± 0.1	997.9 ± 0.1	0.6253 ± 0.0055	0.6261 ± 0.0055	0.6527 ± 0.0056	0.6766 ± 0.0057
